# System: MV-4-11 cells
# Assay: Gene expression microarray analysis (Affymetrix PrimeView) and GSEA
# Assay type: cell-based, human
# Parameters: RFU PODN (11730768_x_at) / Fold change /veh PODN (11730768_x_at) / RFU LINC00158 (11744669_a_at) / Fold change /veh LINC00158 (11744669_a_at) / RFU DUSP10 (11751237_a_at) / Fold change /veh DUSP10 (11751237_a_at) / RFU ID3 (11757404_x_at) / Fold change /veh ID3 (11757404_x_at) / RFU PLEKHG5 (11737974_s_at) / Fold change /veh PLEKHG5 (11737974_s_at) / RFU LRRC4B (11730491_at) / Fold change /veh LRRC4B (11730491_at) / RFU GIMAP4 (11747438_a_at) / Fold change /veh GIMAP4 (11747438_a_at) / RFU KRT8 (11758183_x_at) / Fold change /veh KRT8 (11758183_x_at) / RFU CNN1 (11734310_a_at) / Fold change /veh CNN1 (11734310_a_at) / RFU VPS37D (11726825_at) / Fold change /veh VPS37D (11726825_at) / RFU C10orf10 (11716522_x_at) / Fold change /veh C10orf10 (11716522_x_at) / RFU KIR2DL2 /// KIR2DL4 /// KIR2DL5A /// KIR2DL5B /// KIR2DS1 /// KIR2DS2 /// KIR2DS3 /// KIR2DS4 /// KIR3DL3 /// KIR3DL3 /// KIR3DS1 (11738374_at) / Fold change /veh KIR2DL2 /// KIR2DL4 /// KIR2DL5A /// KIR2DL5B /// KIR2DS1 /// KIR2DS2 /// KIR2DS3 /// KIR2DS4 /// KIR3DL3 /// KIR3DL3 /// KIR3DS1 (11738374_at) / RFU C1QL1 (11718748_at) / Fold change /veh C1QL1 (11718748_at) / RFU TMPRSS4 (11747572_a_at) / Fold change /veh TMPRSS4 (11747572_a_at) / RFU HAMP (11756126_x_at) / Fold change /veh HAMP (11756126_x_at) / RFU RNFT2 (11725882_a_at) / Fold change /veh RNFT2 (11725882_a_at) / RFU NR4A2 (11747474_a_at) / Fold change /veh NR4A2 (11747474_a_at) / RFU ABCC12 (11746883_a_at) / Fold change /veh ABCC12 (11746883_a_at) / RFU TMEM136 (11760407_x_at) / Fold change /veh TMEM136 (11760407_x_at) / RFU CLDN22 /// WWC2 (11732394_at) / Fold change /veh CLDN22 /// WWC2 (11732394_at) / RFU HLA-DPB1 (11760878_x_at) / Fold change /veh HLA-DPB1 (11760878_x_at) / RFU SPINT1 (11716480_a_at) / Fold change /veh SPINT1 (11716480_a_at) / RFU GAP43 (11754022_s_at) / Fold change /veh GAP43 (11754022_s_at) / RFU A4GNT (11735810_at) / Fold change /veh A4GNT (11735810_at) / RFU PRB3 (11715151_x_at) / Fold change /veh PRB3 (11715151_x_at) / RFU TUBB4B (11761932_at) / Fold change /veh TUBB4B (11761932_at) / RFU CAPN14 (11732068_a_at) / Fold change /veh CAPN14 (11732068_a_at) / RFU TMCC2 (11721928_a_at) / Fold change /veh TMCC2 (11721928_a_at) / RFU IRGQ (11745062_a_at) / Fold change /veh IRGQ (11745062_a_at) / RFU FAM174B (11720279_a_at) / Fold change /veh FAM174B (11720279_a_at) / RFU TMPRSS4 (11748680_a_at) / Fold change /veh TMPRSS4 (11748680_a_at) / RFU FAM212B (11763350_a_at) / Fold change /veh FAM212B (11763350_a_at) / RFU PLEKHG5 (11743358_a_at) / Fold change /veh PLEKHG5 (11743358_a_at) / RFU ZSCAN30 (11745921_a_at) / Fold change /veh ZSCAN30 (11745921_a_at) / RFU CMKLR1 (11741424_a_at) / Fold change /veh CMKLR1 (11741424_a_at) / RFU LOC101060620 /// MAPK8IP1 (11723275_at) / Fold change /veh LOC101060620 /// MAPK8IP1 (11723275_at) / RFU SPTSSB (11747773_x_at) / Fold change /veh SPTSSB (11747773_x_at) / RFU PRSS12 (11739890_at) / Fold change /veh PRSS12 (11739890_at) / RFU BIN1 (11741810_x_at) / Fold change /veh BIN1 (11741810_x_at) / RFU WNT11 (11732464_a_at) / Fold change /veh WNT11 (11732464_a_at) / RFU C10orf10 (11716521_a_at) / Fold change /veh C10orf10 (11716521_a_at) / RFU C5orf56 (11738089_at) / Fold change /veh C5orf56 (11738089_at) / RFU CYB561 (11721691_x_at) / Fold change /veh CYB561 (11721691_x_at) / RFU ANKRD19P (11752326_a_at) / Fold change /veh ANKRD19P (11752326_a_at) / RFU OR2T12 /// OR2T33 /// OR2T8 (11738714_s_at) / Fold change /veh OR2T12 /// OR2T33 /// OR2T8 (11738714_s_at) / RFU VCAN (11748164_a_at) / Fold change /veh VCAN (11748164_a_at) / RFU JSRP1 (11732532_at) / Fold change /veh JSRP1 (11732532_at) / RFU KRTAP10-11 (11738290_x_at) / Fold change /veh KRTAP10-11 (11738290_x_at) / RFU MYO3A (11730013_a_at) / Fold change /veh MYO3A (11730013_a_at) / RFU EBF3 (11725865_a_at) / Fold change /veh EBF3 (11725865_a_at) / RFU CAMK2N1 (11719241_x_at) / Fold change /veh CAMK2N1 (11719241_x_at) / RFU C5orf56 (11738088_a_at) / Fold change /veh C5orf56 (11738088_a_at) / RFU OLFML3 (11715873_a_at) / Fold change /veh OLFML3 (11715873_a_at) / RFU LOC100653217 /// NTM (11731650_a_at) / Fold change /veh LOC100653217 /// NTM (11731650_a_at) / RFU MAPK11 (11762145_a_at) / Fold change /veh MAPK11 (11762145_a_at) / RFU FIZ1 (11724087_x_at) / Fold change /veh FIZ1 (11724087_x_at) / RFU OASL (11726364_x_at) / Fold change /veh OASL (11726364_x_at) / RFU SOX15 (11748057_x_at) / Fold change /veh SOX15 (11748057_x_at) / RFU CD79A (11719716_a_at) / Fold change /veh CD79A (11719716_a_at) / RFU HIST1H1D (11736915_at) / Fold change /veh HIST1H1D (11736915_at) / RFU CASKIN2 (11723855_a_at) / Fold change /veh CASKIN2 (11723855_a_at) / RFU LOC730098 (11760151_x_at) / Fold change /veh LOC730098 (11760151_x_at) / RFU OR4N2 (11742367_at) / Fold change /veh OR4N2 (11742367_at) / RFU PRRT2 (11749266_a_at) / Fold change /veh PRRT2 (11749266_a_at) / RFU SNX32 (11753110_a_at) / Fold change /veh SNX32 (11753110_a_at) / RFU CDHR5 (11726645_a_at) / Fold change /veh CDHR5 (11726645_a_at) / RFU RCAN1 (11760418_a_at) / Fold change /veh RCAN1 (11760418_a_at) / RFU FAM167A (11723789_a_at) / Fold change /veh FAM167A (11723789_a_at) / RFU FAM26E (11764081_at) / Fold change /veh FAM26E (11764081_at) / RFU ISYNA1 (11749810_s_at) / Fold change /veh ISYNA1 (11749810_s_at) / RFU ACY1 (11761880_at) / Fold change /veh ACY1 (11761880_at) / RFU 11764098_at / Fold change /veh 11764098_at / RFU SAMD14 (11745864_x_at) / Fold change /veh SAMD14 (11745864_x_at) / RFU NPB (11741838_a_at) / Fold change /veh NPB (11741838_a_at) / RFU TMPRSS6 (11731388_a_at) / Fold change /veh TMPRSS6 (11731388_a_at) / RFU KRTAP10-2 (11738614_at) / Fold change /veh KRTAP10-2 (11738614_at) / RFU ARHGAP8 /// PRR5-ARHGAP8 (11727945_x_at) / Fold change /veh ARHGAP8 /// PRR5-ARHGAP8 (11727945_x_at) / RFU KRTAP5-7 /// NADSYN1 (11734609_at) / Fold change /veh KRTAP5-7 /// NADSYN1 (11734609_at) / RFU RASL12 (11751679_a_at) / Fold change /veh RASL12 (11751679_a_at) / RFU CDKN2B (11736163_a_at) / Fold change /veh CDKN2B (11736163_a_at) / RFU PRF1 (11729649_at) / Fold change /veh PRF1 (11729649_at) / RFU, ZNF638 /// ZNF638-IT1 / Fold change vs veh, ZNF638 /// ZNF638-IT1 / RFU, PANK3 / Fold change vs veh, PANK3 / RFU, SH3YL1 / Fold change vs veh, SH3YL1 / RFU, ZEB2 / Fold change vs veh, ZEB2 / RFU, NRIP1 / Fold change vs veh, NRIP1 / RFU, PTTG1IP / Fold change vs veh, PTTG1IP / RFU, CAPN2 / Fold change vs veh, CAPN2 / RFU, MED14 / Fold change vs veh, MED14 / RFU, SNORA58 / Fold change vs veh, SNORA58 / RFU, C1orf63 / Fold change vs veh, C1orf63 / RFU, LRRFIP1 / Fold change vs veh, LRRFIP1 / RFU, NDUFAF7 / Fold change vs veh, NDUFAF7 / RFU, SLC12A2 / Fold change vs veh, SLC12A2 / RFU, IBTK / Fold change vs veh, IBTK / RFU, ESF1 / Fold change vs veh, ESF1 / Fold change vs veh, TMEM50B / RFU, TAOK1 / Fold change vs veh, TAOK1 / RFU, ACBD3 / Fold change vs veh, ACBD3 / RFU, TMA16 / Fold change vs veh, TMA16 / RFU, RWDD3 / Fold change vs veh, RWDD3 / RFU, BCAT1 / Fold change vs veh, BCAT1 / RFU, EDEM3 / Fold change vs veh, EDEM3 / RFU, TMEM33 / Fold change vs veh, TMEM33 / RFU, WDR75 / Fold change vs veh, WDR75 / RFU, AHCTF1 / Fold change vs veh, AHCTF1 / RFU, TFRC / Fold change vs veh, TFRC / RFU, ZDHHC17 / Fold change vs veh, ZDHHC17 / RFU, NOM1 / Fold change vs veh, NOM1 / RFU, ARL8B / Fold change vs veh, ARL8B / RFU, ZBTB11 / Fold change vs veh, ZBTB11 / RFU, TAMM41 / Fold change vs veh, TAMM41 / RFU, KIAA1704 /// LOC100996395 / Fold change vs veh, KIAA1704 /// LOC100996395 / RFU, ING1 / Fold change vs veh, ING1 / RFU, TRMT61B / Fold change vs veh, TRMT61B / RFU, FUBP3 / Fold change vs veh, FUBP3 / RFU, TP53 / Fold change vs veh, TP53 / RFU, TNKS2 / Fold change vs veh, TNKS2 / RFU, ZFP14 / Fold change vs veh, ZFP14 / RFU, ACTR2 / Fold change vs veh, ACTR2 / RFU, PPP3R1 / Fold change vs veh, PPP3R1 / RFU, PIK3R1 / Fold change vs veh, PIK3R1 / RFU, HNRNPA1 / Fold change vs veh, HNRNPA1 / RFU, RNF170 / Fold change vs veh, RNF170 / RFU, ZNF28 / Fold change vs veh, ZNF28 / RFU, RNGTT / Fold change vs veh, RNGTT / RFU, OGT / Fold change vs veh, OGT / RFU, BRD1 / Fold change vs veh, BRD1 / RFU, MARS / Fold change vs veh, MARS / RFU, ZNF655 / Fold change vs veh, ZNF655 / RFU, FAHD1 / Fold change vs veh, FAHD1 / RFU, BDP1 / Fold change vs veh, BDP1 / RFU, LRRCC1 / Fold change vs veh, LRRCC1 / RFU, ARID1A / Fold change vs veh, ARID1A / RFU, ZNF146 / Fold change vs veh, ZNF146 / RFU, ZNF330 / Fold change vs veh, ZNF330 / RFU, GPN3 / Fold change vs veh, GPN3 / RFU, C9orf123 / Fold change vs veh, C9orf123 / RFU, N4BP2L2 / Fold change vs veh, N4BP2L2 / RFU, ARFIP1 / Fold change vs veh, ARFIP1 / RFU, FAM179B / Fold change vs veh, FAM179B / RFU, BCL10 / Fold change vs veh, BCL10 / RFU, UHRF1BP1L / Fold change vs veh, UHRF1BP1L / RFU, BET1 / Fold change vs veh, BET1 / RFU, CNOT2 / Fold change vs veh, CNOT2 / RFU, ZNF268 / Fold change vs veh, ZNF268 / Fold change vs veh, ZNF507 / RFU, DGCR2 / Fold change vs veh, DGCR2 / RFU, WDSUB1 / Fold change vs veh, WDSUB1 / Fold change vs veh, HSP90B1 /// MIR3652 / RFU, ADSS / Fold change vs veh, ADSS / RFU, GK / Fold change vs veh, GK / RFU, ZNF148 / Fold change vs veh, ZNF148 / RFU, TAF9 / Fold change vs veh, TAF9 / RFU, SLC1A5 / Fold change vs veh, SLC1A5 / RFU, SLMO2 / Fold change vs veh, SLMO2 / RFU, ABCC4 / Fold change vs veh, ABCC4 / RFU, LOC101060439 /// RAP1B / Fold change vs veh, LOC101060439 /// RAP1B / RFU, RFX7 / Fold change vs veh, RFX7 / RFU, GTPBP10 / Fold change vs veh, GTPBP10 / RFU, CNEP1R1 / Fold change vs veh, CNEP1R1 / RFU, BIVM-ERCC5 /// ERCC5 / Fold change vs veh, BIVM-ERCC5 /// ERCC5 / RFU, ILF3 / Fold change vs veh, ILF3 / RFU 11762660_at / Fold change /veh 11762660_at / RFU VCAN (11757783_s_at) / Fold change /veh VCAN (11757783_s_at) / RFU DDX43 (11728927_at) / Fold change /veh DDX43 (11728927_at) / RFU KRT8 (11758188_x_at) / Fold change /veh KRT8 (11758188_x_at) / RFU NKD1 (11759106_at) / Fold change /veh NKD1 (11759106_at) / RFU SRD5A1 (11742802_a_at) / Fold change /veh SRD5A1 (11742802_a_at) / RFU TPSAB1 /// TPSB2 (11721975_s_at) / Fold change /veh TPSAB1 /// TPSB2 (11721975_s_at) / RFU GSTM3 (11746129_a_at) / Fold change /veh GSTM3 (11746129_a_at) / RFU IL23R (11737362_x_at) / Fold change /veh IL23R (11737362_x_at) / RFU TMEM51 (11727254_a_at) / Fold change /veh TMEM51 (11727254_a_at) / RFU PIWIL2 (11732686_x_at) / Fold change /veh PIWIL2 (11732686_x_at) / RFU ORM1 (11744905_x_at) / Fold change /veh ORM1 (11744905_x_at) / RFU CCDC152 (11743942_at) / Fold change /veh CCDC152 (11743942_at) / RFU ECM1 (11717891_a_at) / Fold change /veh ECM1 (11717891_a_at) / RFU IL23R (11748794_a_at) / Fold change /veh IL23R (11748794_a_at) / RFU TNFAIP8L3 (11732012_x_at) / Fold change /veh TNFAIP8L3 (11732012_x_at) / RFU MBOAT4 (11741988_at) / Fold change /veh MBOAT4 (11741988_at) / RFU 11764193_at / Fold change /veh 11764193_at / RFU TMEM53 (11763286_at) / Fold change /veh TMEM53 (11763286_at) / RFU MAGEB2 (11727129_at) / Fold change /veh MAGEB2 (11727129_at) / RFU TMEM200A (11744735_a_at) / Fold change /veh TMEM200A (11744735_a_at) / RFU CCDC152 (11751479_a_at) / Fold change /veh CCDC152 (11751479_a_at) / RFU FAM211A (11726209_a_at) / Fold change /veh FAM211A (11726209_a_at) / RFU RGS16 (11746705_a_at) / Fold change /veh RGS16 (11746705_a_at) / RFU VCAN (11755009_s_at) / Fold change /veh VCAN (11755009_s_at) / RFU RHOB (11743442_s_at) / Fold change /veh RHOB (11743442_s_at) / RFU RGS16 (11720943_a_at) / Fold change /veh RGS16 (11720943_a_at) / RFU RGS16 (11720944_at) / Fold change /veh RGS16 (11720944_at) / RFU, VPS4B / Fold change vs veh, VPS4B / RFU, CREB1 / Fold change vs veh, CREB1 / RFU, DNAJC13 / Fold change vs veh, DNAJC13 / RFU, GNAQ / Fold change vs veh, GNAQ / RFU, CDK5R1 / Fold change vs veh, CDK5R1 / RFU, ZRANB3 / Fold change vs veh, ZRANB3 / RFU, CUL4A / Fold change vs veh, CUL4A / RFU, CCNY / Fold change vs veh, CCNY / RFU, UFL1 / Fold change vs veh, UFL1 / RFU, COG3 / Fold change vs veh, COG3 / RFU, DIAPH2 / Fold change vs veh, DIAPH2 / RFU, SKA2 / Fold change vs veh, SKA2 / RFU, AFF3 / Fold change vs veh, AFF3 / RFU, LMF1 / Fold change vs veh, LMF1 / RFU, IPO11 / Fold change vs veh, IPO11 / RFU, DFFB / Fold change vs veh, DFFB / RFU, FOXP1 / Fold change vs veh, FOXP1 / RFU, CARD8 / Fold change vs veh, CARD8 / RFU, STRN3 / Fold change vs veh, STRN3 / RFU, ADK / Fold change vs veh, ADK / RFU, RASSF2 / Fold change vs veh, RASSF2 / RFU, WIPF1 / Fold change vs veh, WIPF1 / RFU, LARP1B / Fold change vs veh, LARP1B / RFU, RASA1 / Fold change vs veh, RASA1 / RFU, RB1 / Fold change vs veh, RB1 / RFU, PPFIA1 / Fold change vs veh, PPFIA1 / RFU, MAT2A / Fold change vs veh, MAT2A / RFU, CCT5 / Fold change vs veh, CCT5 / RFU, WDR92 / Fold change vs veh, WDR92 / RFU, CUX1 / Fold change vs veh, CUX1 / RFU, TTC7A / Fold change vs veh, TTC7A / RFU, TMEM135 / Fold change vs veh, TMEM135 / RFU, DEPTOR / Fold change vs veh, DEPTOR / RFU, CPM / Fold change vs veh, CPM / RFU, DNAJB6 / Fold change vs veh, DNAJB6 / RFU, CACNA2D3 / Fold change vs veh, CACNA2D3 / RFU, DTX4 / Fold change vs veh, DTX4 / RFU, TFCP2 / Fold change vs veh, TFCP2 / RFU, GMCL1 /// GMCL1P1 / Fold change vs veh, GMCL1 /// GMCL1P1 / RFU, AEBP2 / Fold change vs veh, AEBP2 / RFU, SNHG1 /// SNORD22 /// SNORD25 /// SNORD26 /// SNORD27 /// SNORD28 /// SNORD29 /// SNORD31 / Fold change vs veh, SNHG1 /// SNORD22 /// SNORD25 /// SNORD26 /// SNORD27 /// SNORD28 /// SNORD29 /// SNORD31 / Fold change (Aza/veh), C12orf56 (ProbeSet 11735607_a_at) / Fold change (ACY-1035/veh), C12orf56 (ProbeSet 11735607_a_at) / Fold change (Aza/veh), FGFR1OP (ProbeSet 11751329_s_at) / Fold change (ACY-1035/veh), FGFR1OP (ProbeSet 11751329_s_at) / Fold change (Aza/veh), VPS36 (ProbeSet 11739960_a_at) / Fold change (ACY-1035/veh), VPS36 (ProbeSet 11739960_a_at) / RFU SYPL1 (11715823_x_at) / Fold change /veh SYPL1 (11715823_x_at) / RFU IGFBP7 (11715501_s_at) / Fold change /veh IGFBP7 (11715501_s_at) / RFU REEP3 (11722064_at) / Fold change /veh REEP3 (11722064_at) / RFU IGLL1 (11728026_x_at) / Fold change /veh IGLL1 (11728026_x_at): dose or concentration left out as unconfirmed
# Conditions: MV-4-11 cells, 48 hours
smiles,measurement,value
Nc1ncn([C@@H]2O[C@H](CO)[C@@H](O)[C@H]2O)c(=O)n1 [azacitidine],RFU MAPK11 (11762145_a_at),24.54 RFU
